Laboratory results reported in patent publication EP4627105B1, “METHOD FOR IDENTIFYING A MODIFIED AMINO ACID DEGRON (MAAD)” (ETH Zurich, priority 2022, dated 2024).

Test system: K562 cells
Assay: Fluorescent in-cell reporter (FLICR) protein stability assay: turnover of C-terminally amidated sfGFP after nucleofection, followed by flow cytometry
Format: cell-based, human
Details: for destabilization of sfGFP carrying a primary amide on its C-terminus (sfGFP-Pep1-Ser-NH2): Fig. 1C, inhibitor concentration not given; for Amidated sfGFP degradation: Fig. 2G
Experimental: HEK293T cells were cultured in DMEM containing Glutamax (Thermo Fisher Scientific) and K562 cells were cultured in RPMI 1640 containing Glutamax (Thermo Fisher Scientific) under standard conditions. Growth media were further supplemented with 10% (v/v) Fetal Bovine Serum (Thermo Fisher Scientific) and 100 U/ml Penicillin-Streptomycin (Thermo Fisher Scientific). Stably transduced cells were selected using 2 µg/ml Puromycin (Thermo Fisher Scientific), 500 µg/ml Gene-ticin (Thermo Fisher Scientific) or 10 µg/ml Blasticidin (Thermo Fisher Scientific) starting two days after transduction. Induction of doxycycline-dependent vectors was performed using 500 ng/ml doxycycline (Merck) every 48 hours. Cells were treated with epoxomicin (Merck), concanamycin A (Merck) or TAK243 (MedChem Express) as indicated.
For measuring stability of recombinant or semi-synthetic proteins, 1.5- 2.0 x 10^5 cells were nucleofected with 200 pmol of protein in 20 µl cuvettes using a 4D nucleofector device (Lonza) according to the manufacturer's recommendations. Following protein delivery, cells were left to recover at 37°C for 30-45 minutes before measuring initial mean fluorescence intensity values (t0) on a Attune NxT Flow Cytometer (Thermo Fisher Scientific). Subsequent measurements were performed at indicated time points. Baseline-fluorescence values of mock nucleofected cells receiving no protein were measured and subtracted for each time point and baseline-corrected fluorescence values were normalized to t0.
The effect of each modification on protein degradation was measured in the human erythroleukemia cell line K562, which allows for efficient and uniform protein delivery via nucleofection.
Lastly, conjugates of mTagBFP2 and mCherry carrying a primary C-terminal amide were also efficiently degraded when delivered to human embryonic kidney-derived HEK293T cells (Fig.1D and Fig 1E) establishing that C-terminal amidation induces protein degradation in different amino acid-, protein- and cell contexts.
The effect of each modification on protein degradation in the human erythroleukemia cell line K562 was measured. A fluorescent in-cell reporter assay was performed, in which individual semi-synthetic proteins were introduced by electroporation into human cells and their clearance over time was followed by flow cytometry.
This implies that C-terminal amide-bearing proteins (CTAPs) are actively cleared from cells by the ubiquitin proteasome system. CTAP forms of both mCherry and mTagBFP2, but not their unmodified counterparts, were also efficiently degraded when delivered to human embryonic kidney-derived HEK293T cells, as shown in Fig. 2H (see also the explanations above relating to Fig. 1E). The presence of a C-terminal amide is therefore sufficient to induce protein degradation in different peptide-, protein- and cell contexts.

Row | Structure (SMILES) | destabilization of sfGFP carrying a primary amide on its C-terminus (sfGFP-Pep1-Ser-NH2) | Amidated sfGFP degradation (TAK243 (1 µM) upon sfGFP delivery) | Amidated sfGFP degradation (Folimycin (100 nM) upon sfGFP delivery) | Amidated sfGFP degradation (epoxomicin (500 nM) upon sfGFP delivery)
1 | NS(=O)(=O)OC[C@H]1C[C@@H](Nc2ccnc3cc(-c4cccc(SC(F)(F)F)c4)nn23)[C@H](O)[C@@H]1O [TAK243] | fully blunted | prevented |  | 
2 | C/C=C/[C@H]1O[C@@](O)([C@@H](C)[C@H](O)[C@H](C)[C@H]2OC(=O)/C(OC)=C/C(C)=C/[C@@H](C)[C@@H](O)[C@@H](CC)[C@@H](O)[C@H](C)C/C(C)=C/C=C/[C@@H]2OC)C[C@@H](O[C@H]2C[C@@H](O)[C@H](OC(N)=O)[C@@H](C)O2)[C@@H]1C [concanamycin A] | not by inhibition of lysosomal acidification |  | not by inhibition of lysosomal acidification | 
3 | CC[C@H](C)[C@H](NC(=O)[C@H]([C@@H](C)CC)N(C)C(C)=O)C(=O)N[C@H](C(=O)N[C@@H](CC(C)C)C(=O)[C@@]1(C)CO1)[C@@H](C)O [epoxomicin] | fully blunted |  |  | prevented
